Assay results from patent US7897730B2, “TRAIL receptor-binding agents and uses of the same” (Beijing Cotimes Biotech Ltd., priority 2006, dated 2011).

What was measured:
[1] = test system: human breast cancer cells (BT474); assay: ATPLite cell viability, CTB003 with chemotherapeutic drug; type: cell-based; settings: combination with CTB003
Description: (§1) The cell lines selected for study included: human breast cancer cells (BT474), human colon cancer cells (SW620), human lung cancer cells (A437), human colon cancer cells (SW1116), and human pancreatic cancer cells (Panc 1). All cells were purchased from ATCC.
(§2) After culture at 37° C. overnight, cell viability was determined using the ATPLite kit according to the manufacturer's instructions (Packard Instruments, Meriden, Conn.): add 50 μl of cell lysis buffer and then 50 μl of substrate buffer. The reaction was counted in a luminescent reader. Cell viability was calculated as (cpm of treated cells/cmp of control cells)×100%.

[2] = test system: MDA231 human breast cancer cell line; assay: Xenograft model, tumor size; type: in vivo, Balb/c nude mice
Description: Human cancer cell lines that were used for generation of murine xenograft models of human cancer are: a) MDA231 human breast cancer cell line; b) 7402 human liver cancer cell line; c) Colo205 human colon cancer cell lines; and d) MIAcapa human pancreatic cancer cell line. All cells were purchased from ATCC, and cultured in DMEM supplemented with 10% FCS.
Six (6) to 8 week-old Balb/c nude mice were inoculated subcutaneously with 1×10^7 human cancer cells. At day 7-14 after tumor inoculation depending on inoculated tumor cell lines, over 90% mice developed viable tumor mass. The tumor-bearing mice were randomly divided into two groups: one was untreated control group, and another was CTB003 treated group. Human cancer tumor growth was evaluated by sizes of tumor. After inoculation, tumor sizes were measured weekly.
The treatment was repeated six times within three weeks.
(§3) Six (6) to 8 week-old Balb/c nude mice were inoculated subcutaneously with 1×10^7 human MDA231 breast cancer cells. […] Human breast cancer tumor growth was evaluated by measuring the size of tumor. After inoculation the tumor sizes were measured in mice weekly. […]
as §3

[3] = test system: human colon cancer cells (SW1116); assay: ATPLite cell viability, CTB003 with chemotherapeutic drug or mono-specific antibody; type: cell-based; settings: for effect on CTB003 killing: combination with CTB003
Description: as §1, §2
as §2, with “for 16 h,” for “overnight,”

[4] = test system: human lung cancer cells (A437); assay: ATPLite cell viability, CTB003 with chemotherapeutic drug; type: cell-based; settings: combination with CTB003
Description: as §1, §2

[5] = test system: human pancreatic cancer cells (Panc-1); assay: as above; type: cell-based; settings: combination with CTB003
Description: as §1, §2

[6] = test system: human colon cancer cells (SW620); assay: as above; type: cell-based; settings: combination with CTB003
Description: as §1, §2

[7] = test system: Human B lymphoma cells (Ramos); assay: ATPLite cell viability, apoptosis-inducing activity; type: cell-based; settings: 10-1000 ng/ml antibody, 16 h
Description: (§4) Tumor cells may express differential levels of cell surface of TRAIL-R1 and TRAIL-R2, therefore a monospecific antibody directed against either TRAIL-R1 or TRAIL-R2 may not able to bind to and induce apoptosis of all tumor cells when administered alone. […] Human T leukemia cells (Jurkat) only express TRAIL-R2 but not TRAIL-R1. Human B lymphoma cells (Ramos) express high levels of TRAIL-R1 but low levels of TRAIL-R2.
After culture at 37° C. for 16 h, the cell viability of each culture was determined using the ATPLite kit according to the manufacturer's instructions (Packard Instruments, Meriden, Conn.): add 50 μl of cell lysis buffer and then 50 μl of substrate buffer. The reaction was counted in a luminescent reader. Cell viability was calculated as (cpm of treated cells/cmp of control cells)×100%.

[8] = test system: Human T leukemia cells (Jurkat); assay: Flow cytometry analysis of cell surface binding; settings: 10 μg/ml antibody; cells express TRAIL-R2 but not TRAIL-R1
Description: as §4
(§5) 1×10^6 single cells were collected from cell culture medium and washed twice with FACS buffer (PBS containing 5% FCS, 0.1% NaN3, pH7.4). […] After washing twice with 1 ml FACS buffer, cells were further incubated with PE-conjugated goat anti-mouse IgG1 antibody on ice for 30 minutes. After washing twice with 1 ml FACS buffer, cells were suspended in 0.5 ml FACS buffer and 10,000 viable cells were analyzed by FACScan flow cytometer.

[9] = test system: Human B lymphoma cells (Ramos); assay: Flow cytometry analysis of cell surface binding; settings: 10 μg/ml antibody; cells express high TRAIL-R1, low TRAIL-R2
Description: as §4, §5

[10] = test system: binding of CTB003 to TRAIL-R2; assay: Competitive inhibition ELISA with polypeptides; set-up: species or system human; settings: 1 μg/ml CTB003, various concentrations of peptide
binding of CTB003 to TRAIL-R2, sequence (as listed by the source): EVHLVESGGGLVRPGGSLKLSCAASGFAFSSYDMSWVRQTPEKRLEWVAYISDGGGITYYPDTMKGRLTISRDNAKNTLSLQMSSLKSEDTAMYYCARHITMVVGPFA
binding of CTB003 to TRAIL-R2, sequence (as listed by the source): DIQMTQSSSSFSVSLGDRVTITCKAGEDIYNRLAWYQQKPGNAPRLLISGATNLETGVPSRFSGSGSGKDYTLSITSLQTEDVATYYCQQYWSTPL
binding of CTB003 to TRAIL-R2, sequence (O14763 56-210 partner limits assumed): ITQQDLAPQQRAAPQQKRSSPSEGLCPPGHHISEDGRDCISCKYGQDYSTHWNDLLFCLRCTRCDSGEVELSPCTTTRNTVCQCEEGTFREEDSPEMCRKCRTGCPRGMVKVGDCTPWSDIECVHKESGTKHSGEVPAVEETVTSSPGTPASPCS
Description: (§6) ELISA plate was coated with 1 μg/ml TRAIL-R2-Fc fusion protein in PBS at 4° C. overnight. After washing three times with PBS, the plate was blocked with 3% BSA PBS at room temperature for one hour. […] The unbound antibodies were removed by washing three time with PBS, and then HRP-conjugated goat anti-mouse IgG1 was added at 37° C. for 30 minutes. After washing three times with PBS, TMB substrate buffer was added for 10 minutes and then the reaction was stopped by adding 2N H2SO4. The values of optical density were recorded in a ELISA plate reader with a dual wavelength at 450 nm/650 nm.
as §6, with “μg/ml TRAIL-R1 or” for “μg/ml”

[11] = test system: binding of CTB003 to TRAIL-R1; assay: Competitive inhibition ELISA with polypeptides; set-up: species or system human; settings: 1 μg/ml CTB003, various concentrations of peptide
binding of CTB003 to TRAIL-R1, sequence (O00220 24-239 partner limits assumed): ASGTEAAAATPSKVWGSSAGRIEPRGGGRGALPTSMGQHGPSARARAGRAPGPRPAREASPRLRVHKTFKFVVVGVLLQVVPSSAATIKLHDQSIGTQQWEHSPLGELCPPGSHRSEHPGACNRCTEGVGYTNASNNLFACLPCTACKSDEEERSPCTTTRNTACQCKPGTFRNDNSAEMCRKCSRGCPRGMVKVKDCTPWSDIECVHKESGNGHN
Description: as §6, with “μg/ml TRAIL-R1 or” for “μg/ml”

[12] = test system: binding of humanized chimeric CTB003 to TRAIL-R2; assay: Competitive inhibition ELISA with polypeptides; set-up: species or system human; settings: various concentrations of peptide
binding of humanized chimeric CTB003 to TRAIL-R2, sequence (as listed by the source, change not shown): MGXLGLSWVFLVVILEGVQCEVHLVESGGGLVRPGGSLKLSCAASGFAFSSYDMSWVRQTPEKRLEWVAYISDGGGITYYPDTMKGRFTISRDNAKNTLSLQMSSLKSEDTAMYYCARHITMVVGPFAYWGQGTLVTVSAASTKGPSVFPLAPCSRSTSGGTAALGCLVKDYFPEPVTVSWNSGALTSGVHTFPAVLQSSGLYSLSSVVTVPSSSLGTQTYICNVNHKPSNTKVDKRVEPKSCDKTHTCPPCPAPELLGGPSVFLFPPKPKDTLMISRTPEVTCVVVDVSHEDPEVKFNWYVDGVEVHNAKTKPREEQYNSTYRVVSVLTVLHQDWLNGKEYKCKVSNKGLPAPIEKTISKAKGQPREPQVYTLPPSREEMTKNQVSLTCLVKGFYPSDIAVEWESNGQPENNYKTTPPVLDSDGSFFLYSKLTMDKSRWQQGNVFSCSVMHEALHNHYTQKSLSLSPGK
binding of humanized chimeric CTB003 to TRAIL-R2, sequence (as listed by the source, change not shown): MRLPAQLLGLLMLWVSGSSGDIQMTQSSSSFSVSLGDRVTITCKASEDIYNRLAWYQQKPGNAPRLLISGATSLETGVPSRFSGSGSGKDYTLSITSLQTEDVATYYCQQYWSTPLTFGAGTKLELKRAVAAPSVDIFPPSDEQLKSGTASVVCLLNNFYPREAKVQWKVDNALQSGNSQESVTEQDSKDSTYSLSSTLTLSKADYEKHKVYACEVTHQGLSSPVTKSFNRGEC
binding of humanized chimeric CTB003 to TRAIL-R2, sequence (O14763 56-210 partner limits assumed): as the sequence (O14763 56-210 partner limits assumed) above
Description: as §6, with “μg/ml TRAIL-R1 or” for “μg/ml”

[13] = test system: binding of humanized chimeric CTB003 to TRAIL-R1; assay: Competitive inhibition ELISA with polypeptides; set-up: species or system human; settings: various concentrations of peptide
binding of humanized chimeric CTB003 to TRAIL-R1, sequence (O00220 24-239 partner limits assumed): as the sequence (O00220 24-239 partner limits assumed) above
Description: as §6, with “μg/ml TRAIL-R1 or” for “μg/ml”

## COc1cccc2c1C(=O)c1c(O)c3c(c(O)c1C2=O)C[C@@](O)(C(=O)CO)C[C@@H]3O[C@H]1C[C@H](N)[C@H](O)[C@H](C)O1 [Adriamycin, reference compound]
[1]
  effect on CTB003 killing: synergistically enhanced CTB003 killing in a dose-dependent fashion
[2]; Adriamycin alone, 100 μg per dose i.p. twice a week for three times
  effect on tumor: tumor inhibition was observed but tumor size reduction was not remarkable

## CCc1c2c(nc3ccc(OC(=O)N4CCC(N5CCCCC5)CC4)cc13)-c1cc3c(c(=O)n1C2)COC(=O)[C@]3(O)CC [CTP-11, reference compound]
[3]
  effect on CTB003 killing: synergistically enhanced CTB003 killing in a dose-dependent fashion

## N.N.[Cl][Pt][Cl] [Cisplatin, reference compound]
[4]
  effect on CTB003 killing: synergistically enhanced CTB003 killing in a dose-dependent fashion

## Nc1ccn([C@@H]2O[C@H](CO)[C@@H](O)C2(F)F)c(=O)n1 [Gemcitabine, reference compound]
[5]
  effect on CTB003 killing: synergistically enhanced CTB003 killing in a dose-dependent fashion

## CC(=O)O[C@H]1C(=O)[C@@]2(C)[C@H]([C@H](OC(=O)c3ccccc3)[C@]3(O)C[C@H](OC(=O)[C@H](O)[C@@H](NC(=O)c4ccccc4)c4ccccc4)C(C)=C1C3(C)C)[C@]1(OC(C)=O)CO[C@@H]1C[C@@H]2O [Taxol]
[6]
  effect on CTB003 killing: synergistically enhanced CTB003 killing in a dose-dependent fashion

## CTB006: Murine monospecific antibody directed to TRAIL-R2 receptor; hybridoma CGMCC 1691
[7]
  susceptibility to antibody-induced apoptosis: not susceptible
[8]
  cell surface staining: positively stained
[9]
  cell surface staining: only weakly stained
[3]
  effect on CTB003 killing: synergistically enhanced CTB003 killing in a dose-dependent fashion
[3]; single antibody
  cell killing by antibody alone: did not induce cell killing
[2]; CTB006 alone, 100 μg i.p. twice a week for three times
  effect on tumor: tumor inhibition was observed but tumor size reduction was not remarkable

## MVKVGDCTPWSDIECVHKESGTKHSGEAPA [peptide G, TRAIL-R2 (aa164-aa193), reference compound]
[10]
  inhibition of antibody binding: inhibited the binding of CTB003 to TRAIL-R2 in a dose-dependent manner

## RKCRTGCPRGMVKVGDCTPWSDIECVHKES [peptide F, TRAIL-R2 (aa154-aa183), reference compound]
[10]
  inhibition of antibody binding: inhibited the binding of CTB003 to TRAIL-R2 in a dose-dependent manner

## VGDCTPWSDIECVHKE [peptide H]
[11]
  inhibition of antibody binding: inhibited the binding of CTB003 to TRAIL-R1 in a dose-dependent manner
[12]
  inhibition of antibody binding: inhibited the binding of humanized chimeric CTB003 to TRAIL-R2 in a dose-dependent manner
[13]
  inhibition of antibody binding: inhibited the binding of humanized chimeric CTB003 to TRAIL-R1 in a dose-dependent manner
[10]
  inhibition of antibody binding: inhibited the binding of CTB003 to TRAIL-R2 in a dose-dependent manner

## VKDCTPWSDIECVHKE [peptide I]
[11]
  inhibition of antibody binding: inhibited the binding of CTB003 to TRAIL-R1 in a dose-dependent manner
[12]
  inhibition of antibody binding: inhibited the binding of humanized chimeric CTB003 to TRAIL-R2 in a dose-dependent manner
[13]
  inhibition of antibody binding: inhibited the binding of humanized chimeric CTB003 to TRAIL-R1 in a dose-dependent manner
[10]
  inhibition of antibody binding: inhibited the binding of CTB003 to TRAIL-R2 in a dose-dependent manner
